Common to all, as to assay: In vitro activity (MIC) against Gram-negative aerobic bacteria
Common to all, as to format: cell-based

Assay [1] concerns Citrobacter freundii MMX 6284.
Assay [2] deals with Acinetobacter baumannii MMX 2587; MDR.
The test system of assay [3] is Enterobacter cloacae MMX 6089.
The subject of assay [4] is Klebsiella pneumoniae MMX 4683 (CDC ART2008030); ESBL, KPC-2.
The test system of assay [5] is Proteus mirabilis MMX 6442.
Assay [6] deals with Klebsiella pneumoniae MMX 6854; ESBL.
Assay [7] deals with Klebsiella pneumoniae MMX 4885; KPC.
For assay [8], the system named is Serratia marcescens MMX 6462.
Assay [9] relates to Acinetobacter baumannii MMX 2599.
Assay [10] concerns Acinetobacter baumannii ATCC 19606.

MIC data for 7 compounds are collected here from patent US20240383899A1, “MODIFIED CARBAPENEM ANTIBIOTICS WITH IMPROVED ACTIVITY AGAINST KPC CARBAPENEMASE-PRODUCING ENTEROBACTERALES” (priority 2023, published 2024).

In brackets after ≈: the same amount, converted by molar mass. Like-named read-outs stand apart in the source and are kept apart here.

With `C[C@@H](O)[C@H]1C(=O)N2C(C(=O)O)=C(S[C@@H]3CN[C@H](C(=O)N(C)C)C3)[C@H](C)[C@H]12` [MEM, meropenem], the MIC – broadly, the lowest concentration that inhibits growth of the organism – in assay [1] (MMX6284, read-out: MIC) was greater than 8 µg/mL; in assay [2] (read-out: MIC), greater than 8 µg/mL; in assay [3] (MMX6089, read-out: MIC), 0.06 µg/mL (≈ 0.156 µM); in assay [4] (read-out: MIC), greater than 8 µg/mL; in assay [5] (MMX6442, read-out: MIC) it was 0.12 µg/mL (≈ 0.313 µM); in assay [6] (read-out: MIC), 0.25 µg/mL (≈ 0.652 µM). Also, the MIC is greater than 8 µg/mL in assay [7] (read-out: MIC); 0.25 µg/mL (≈ 0.652 µM) in assay [8] (MMX6462, read-out: MIC); 0.25 µg/mL (≈ 0.652 µM) in assay [9] (MMX2599, read-out: MIC); 2 µg/mL (≈ 5.22 µM) in [10] (ATCC19606, read-out: MIC).

For the compound `Cc1ncc([N+](=O)[O-])n1CCO` [MET, metronidazole], the minimum inhibitory concentration (MIC) in assay [1] (MMX6284, read-out: MIC) is greater than 32 µg/mL; in assay [2] (read-out: MIC) it was greater than 32 µg/mL; in [3] (MMX6089, read-out: MIC), greater than 32 µg/mL; in assay [4] (read-out: MIC), greater than 32 µg/mL; in [5] (MMX6442, read-out: MIC), greater than 32 µg/mL; in assay [6] (read-out: MIC), greater than 32 µg/mL. The MIC in [7] (read-out: MIC) is greater than 32 µg/mL; in assay [8] (MMX6462, read-out: MIC), greater than 32 µg/mL; in assay [9] (MMX2599, read-out: MIC), greater than 32 µg/mL; in [10] (ATCC19606, read-out: MIC), greater than 32 µg/mL.

`CC(C)(O/N=C(\C(=O)N[C@@H]1C(=O)N2C(C(=O)[O-])=C(C[n+]3ccccc3)CS[C@H]12)c1csc(N)n1)C(=O)O` [CAZ, ceftazidime]: the MIC is greater than 32 µg/mL in assay [1] (MMX6284, read-out: MIC); greater than 32 µg/mL in assay [2] (read-out: MIC); 32 µg/mL (≈ 58.5 µM) in assay [3] (MMX6089, read-out: MIC); greater than 32 µg/mL in assay [4] (read-out: MIC); no more than 0.03 µg/mL in assay [5] (MMX6442, read-out: MIC); 0.5 µg/mL (≈ 0.915 µM) in [6] (read-out: MIC). In addition, the MIC is greater than 32 µg/mL in [7] (read-out: MIC); 0.25 µg/mL (≈ 0.457 µM) in assay [8] (MMX6462, read-out: MIC); 8 µg/mL (≈ 14.6 µM) in assay [9] (MMX2599, read-out: MIC); 8 µg/mL (≈ 14.6 µM) in assay [10] (ATCC19606, read-out: MIC).

On to `C[C@H](O)[C@H]1C(=O)N2C(C(=O)O)=C(S[C@@H]3CN[C@H](C(=O)N(C)C)C3)[C@H](C)[C@H]12` [JDB-1-200, (4R,5S,6S)-3-(((3S,5S)-5-(dimethylcarbamoyl)pyrrolidin-1-ium-3-yl)thio)-6-((S)-1-hydroxyethyl)-4-methyl-7-oxo-1-azabicyclo[3.2.0]hept-2-ene-2-carboxylate], for which the MIC came to 1 µg/mL (≈ 2.61 µM) in assay [1] (MMX6284, read-out: MIC); 32 µg/mL (≈ 83.4 µM) in [2] (read-out: MIC); 0.12 µg/mL (≈ 0.313 µM) in [3] (MMX6089, read-out: MIC); 1 µg/mL (≈ 2.61 µM) in [4] (read-out: MIC); 1 µg/mL (≈ 2.61 µM) in [5] (MMX6442, read-out: MIC); 0.5 µg/mL (≈ 1.3 µM) in assay [6] (read-out: MIC). The MIC in [7] (read-out: MIC) is 0.5 µg/mL (≈ 1.3 µM); in assay [8] (MMX6462, read-out: MIC), 0.5 µg/mL (≈ 1.3 µM); in assay [9] (MMX2599, read-out: MIC), 0.12 µg/mL (≈ 0.313 µM); in assay [10] (ATCC19606, read-out: MIC) it was 0.5 µg/mL (≈ 1.3 µM).

Consider `COc1c(N2C[C@@H]3CCCN[C@@H]3C2)c(F)cc2c(=O)c(C(=O)O)cn(C3CC3)c12` [MOX, moxifloxacin], for which the MIC in [1] (MMX6284, read-out: MIC) was greater than 4 µg/mL; in assay [2] (read-out: MIC), greater than 4 µg/mL; in [3] (MMX6089, read-out: MIC) it was 0.03 µg/mL (≈ 0.0747 µM); in [4] (read-out: MIC), greater than 4 µg/mL; in assay [5] (MMX6442, read-out: MIC), 0.25 µg/mL (≈ 0.623 µM); in [6] (read-out: MIC), 0.5 µg/mL (≈ 1.25 µM). Further, the MIC in assay [7] (read-out: MIC) was greater than 4 µg/mL; in [8] (MMX6462, read-out: MIC), 0.12 µg/mL (≈ 0.299 µM); in [9] (MMX2599, read-out: MIC), 0.12 µg/mL (≈ 0.299 µM); in [10] (ATCC19606, read-out: MIC), 0.25 µg/mL (≈ 0.623 µM).

Turning to colistin, the MIC was 0.12 µg/mL in assay [1]; 1 µg/mL in assay [2]; 0.12 µg/mL in assay [3]; 0.12 µg/mL in [4]; greater than 32 µg/mL in assay [5]; 0.25 µg/mL in [6]. For the same compound, the MIC is 8 µg/mL in assay [7], greater than 32 µg/mL in assay [8], 2 µg/mL in [9] and 0.5 µg/mL in assay [10].

Turning to `CN[C@H](CC(C)C)C(=O)N[C@H]1C(=O)N[C@@H](CC(N)=O)C(=O)N[C@H]2C(=O)N[C@H]3C(=O)N[C@H](C(=O)N[C@H](C(=O)O)c4cc(O)cc(O)c4-c4cc3ccc4O)[C@H](O)c3ccc(c(Cl)c3)Oc3cc2cc(c3O[C@@H]2O[C@H](CO)[C@@H](O)[C@H](O)[C@H]2O[C@H]2C[C@](C)(N)[C@H](O)[C@H](C)O2)Oc2ccc(cc2Cl)[C@H]1O` [VAN, vancomycin], the MIC in assay [1] (MMX6284, read-out: MIC) was greater than 32 µg/mL; in assay [2] (read-out: MIC) it was greater than 32 µg/mL; in assay [3] (MMX6089, read-out: MIC), greater than 32 µg/mL; in [4] (read-out: MIC), greater than 32 µg/mL; in assay [5] (MMX6442, read-out: MIC) it was greater than 32 µg/mL; in [6] (read-out: MIC), greater than 32 µg/mL. Moreover, the MIC in [7] (read-out: MIC) was greater than 32 µg/mL; in assay [8] (MMX6462, read-out: MIC), greater than 32 µg/mL; in [9] (MMX2599, read-out: MIC) it was greater than 32 µg/mL; in [10] (ATCC19606, read-out: MIC), greater than 32 µg/mL.
